Experimental data: patent US20260042759A1, “INHIBITOR CONTAINING BICYCLIC DERIVATIVE, PREPARATION METHOD THEREFOR AND USE THEREOF” (SHANGHAI HANSOH BIOMEDICAL CO., LTD., priority 2019, published 2026)

Experiments:
RET = molecular target: T1, RET (Homo sapiens, UniProt P07949); assay: HTRF kinase assay, RET wild-type; type: biochemical; details: ATP at Km
T1 construct: purchased Carna 08-159
Source text: (§1) • RET enzyme was purchased from Carna Company, and the article number was 08-159; • RET M918T enzyme was purchased from Carna Company, and the article number was 08-508; • KIF5B-RET was purchased from SignalChem Company, the article number was R02-19FG-05; • CCDC6-RET was purchased from SignalChem Company, the article number was R02-19BG-05; • RET V804M enzyme was purchased from Thermofisher Company, and the article number was PV6223; • RET V804L enzyme was purchased from Thermofisher Company, and the article number was PV4397; • HTRF KinEASE-TK kit was purchased from Cisbio Company, and the article number was 62TK0PEC; • ATP was purchased from Thermofisher Company, and the article number was PV3227; • 384-well plate was purchased from PerkinElmer Company, and the article number was 6007290.
(§2) In this experiment, the homogeneous time-resolved fluorescence (HTRF) method was used for the detection of compounds on RET kinase activity.

KDR kinase = molecular target: T2, KDR kinase (Homo sapiens, UniProt P35968); assay: HTRF kinase assay, KDR; type: biochemical; details: for IC50: HTRF, ATP at Km; for Ratio (KDR/RET): KDR IC50 / RET IC50
T2 construct: purchased Carna 08-191
Source text: • KDR kinase was purchased from Carna Company, and the article number was 08-191; • HTRF KinEASE-TK kit was purchased from Cisbio Company, and the article number was 62TK0PEC; • ATP was purchased from Thermofisher Company, and the article number was PV3227; • 384-well plate was purchased from PerkinElmer Company, and the article number was 6007290.
In this experiment, the homogeneous time-resolved fluorescence (HTRF) method was used for the detection of compounds on KDR kinase activity.

[1] = test system: TT cells (MTC, RET C634W); assay: TT cell proliferation (CellTiter-Glo); type: cell-based, human; details: Homo sapiens, TT, 72 h
Method: When TT cells were cultured to the appropriate fusion level, TT cells were collected, and the cells were adjusted to the appropriate cell concentration using complete medium, and the cell suspension was spread in a 96-well plate, 90 µL per well, and placed in a 37° C., 5% CO2 incubator overnight; and compound solutions of different concentrations were prepared using DMSO and culture medium; and a solvent control was set, the compound solution was added to a 96-well plate, 10 µL per well, at 37° C. in a 5% CO2 incubator for 72 hours; CellTiter-Glo solution was added thereto and the mixture was mixed well by shaking, incubated for 10 min in the dark, and read by BioTek Synergy H1 microplate reader.
The luminescence signal values were used to calculate the inhibition rate, the concentration and the inhibition rate were fitted to a nonlinear regression curve using Graphpad Prism software.

Ba/F3 KIF5B-RET cells = molecular target: T3, Ba/F3 KIF5B-RET cells (Homo sapiens, UniProt P07949); assay: Ba/F3 KIF5B-RET cell proliferation (CellTiter-Glo); type: cell-based; details: 72 to 144 hours, read-out: Ba/F3 KIF5B-RET IC50
T3 construct: fused on or other part: P33176 (Kinesin-1 heavy chain)
Method: When Ba/F3 KIF5B-RET cells were cultured to the appropriate cell density, cells were collected, and the cells were adjusted to the appropriate cell concentration using complete medium, and the cell suspension was spread in a 96-well plate, 90 μL per well, and placed in a 37° C., 5% CO2 incubator for overnight; compound solutions of different concentrations were prepared using DMSO and culture medium; a solvent control was set, and the compound solution was added to a 96-well plate with 10 μL per well at 37° C. in a 5% CO2 incubator for 72 to 144 hours; CellTiter-Glo solution was added thereto and mixed well by shaking, incubated for 10 min in the dark, and read by BioTek Synergy H1 microplate reader.
The luminescence signal values were used to calculate the inhibition rate, the concentrations and the inhibition rates were fitted to a nonlinear regression curve using Graphpad Prism software.

RET M918T = molecular target: T4, RET M918T (Homo sapiens, UniProt P07949, M918T); assay: HTRF kinase assay, RET M918T; type: biochemical; details: ATP at Km
T4 construct: purchased Carna 08-508
Source text: as §1, §2

[2] = Balb/C mouse pharmacokinetics, oral; type: in vivo; details: male, mouse, po, Balb/C mice, p.o., 5 mg/kg, plasma
Method: The pharmacokinetic behavior of the following compound embodiments, administered orally at a dose of 5 mg/kg in plasma in mice, was studied using Balb/C mice as test animals.
Balb/C Mouse 6/embodiment, male, Shanghai Jiesijie Laboratory Animal Co., Ltd, Animal Production License No. (SCXK (Shanghai) 2013-0006 N0.311620400001794).
Balb/C mice, males; p.o. after overnight fasting, respectively, at a dose of 5 mg/kg, administered in a volume of 10 mL/kg.
0.5% CMC-Na(1% Tween80) was dissolved by ultrasound, and prepared into clear solution or uniform suspension.
Before and after administration, 0.1 mL of blood was collected from mice at 0, 0.5, 1, 2, 4, 6, 8 and 24 hours by orbital collection, placed in EDTA-K2 tubes, centrifuged at 6000 rpm at 4° C. for 6 min to separate plasma, and stored at −80° C.
40 μL of plasma sample was precipitated by adding 160 μL of acetonitrile, mixed and centrifuged at 3500×g for 5-20 min.
100 μL of the supernatant solution after treatment was taken to analyze the concentration of the test compound by LC/MS/MS.
The main pharmacokinetic parameters were calculated using WinNonlin 6.1 and the results of the mouse pharmacokinetic experiments were shown in Table 8 below.

T2 sequence (P35968 20-1356): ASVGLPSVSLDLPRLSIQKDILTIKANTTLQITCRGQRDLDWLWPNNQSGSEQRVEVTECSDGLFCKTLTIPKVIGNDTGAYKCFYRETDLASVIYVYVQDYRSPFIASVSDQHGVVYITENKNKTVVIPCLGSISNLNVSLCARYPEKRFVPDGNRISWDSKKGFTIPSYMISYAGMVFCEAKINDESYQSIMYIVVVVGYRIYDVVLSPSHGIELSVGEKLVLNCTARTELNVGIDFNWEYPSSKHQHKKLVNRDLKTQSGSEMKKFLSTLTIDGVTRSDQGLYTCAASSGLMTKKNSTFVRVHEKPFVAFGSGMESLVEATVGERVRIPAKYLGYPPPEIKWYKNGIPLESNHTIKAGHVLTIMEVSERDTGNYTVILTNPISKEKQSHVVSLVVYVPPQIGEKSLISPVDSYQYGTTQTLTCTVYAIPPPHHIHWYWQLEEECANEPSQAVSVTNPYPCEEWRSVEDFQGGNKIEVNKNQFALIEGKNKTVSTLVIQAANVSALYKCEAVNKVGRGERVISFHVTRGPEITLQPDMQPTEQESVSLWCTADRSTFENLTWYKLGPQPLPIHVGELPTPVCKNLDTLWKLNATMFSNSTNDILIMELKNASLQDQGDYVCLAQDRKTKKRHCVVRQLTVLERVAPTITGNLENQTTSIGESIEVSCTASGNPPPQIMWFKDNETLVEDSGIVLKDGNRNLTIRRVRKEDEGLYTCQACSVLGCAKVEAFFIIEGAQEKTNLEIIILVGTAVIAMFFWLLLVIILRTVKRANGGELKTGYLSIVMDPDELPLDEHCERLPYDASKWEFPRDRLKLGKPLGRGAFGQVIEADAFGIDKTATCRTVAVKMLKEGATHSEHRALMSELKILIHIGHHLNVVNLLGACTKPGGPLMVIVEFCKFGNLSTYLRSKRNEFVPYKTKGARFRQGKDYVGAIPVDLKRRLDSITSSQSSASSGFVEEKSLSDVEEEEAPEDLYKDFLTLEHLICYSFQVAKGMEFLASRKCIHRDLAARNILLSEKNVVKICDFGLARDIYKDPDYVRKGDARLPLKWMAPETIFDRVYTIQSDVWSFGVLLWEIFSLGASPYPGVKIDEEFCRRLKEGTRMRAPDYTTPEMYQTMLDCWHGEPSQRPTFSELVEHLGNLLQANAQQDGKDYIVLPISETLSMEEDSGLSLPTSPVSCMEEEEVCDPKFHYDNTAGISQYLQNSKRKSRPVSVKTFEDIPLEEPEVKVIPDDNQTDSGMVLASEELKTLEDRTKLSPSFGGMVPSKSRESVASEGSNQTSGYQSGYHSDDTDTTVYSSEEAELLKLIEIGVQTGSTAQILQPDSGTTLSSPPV
T3 sequence (P07949 whole entry, change not shown, the tested form may be a part): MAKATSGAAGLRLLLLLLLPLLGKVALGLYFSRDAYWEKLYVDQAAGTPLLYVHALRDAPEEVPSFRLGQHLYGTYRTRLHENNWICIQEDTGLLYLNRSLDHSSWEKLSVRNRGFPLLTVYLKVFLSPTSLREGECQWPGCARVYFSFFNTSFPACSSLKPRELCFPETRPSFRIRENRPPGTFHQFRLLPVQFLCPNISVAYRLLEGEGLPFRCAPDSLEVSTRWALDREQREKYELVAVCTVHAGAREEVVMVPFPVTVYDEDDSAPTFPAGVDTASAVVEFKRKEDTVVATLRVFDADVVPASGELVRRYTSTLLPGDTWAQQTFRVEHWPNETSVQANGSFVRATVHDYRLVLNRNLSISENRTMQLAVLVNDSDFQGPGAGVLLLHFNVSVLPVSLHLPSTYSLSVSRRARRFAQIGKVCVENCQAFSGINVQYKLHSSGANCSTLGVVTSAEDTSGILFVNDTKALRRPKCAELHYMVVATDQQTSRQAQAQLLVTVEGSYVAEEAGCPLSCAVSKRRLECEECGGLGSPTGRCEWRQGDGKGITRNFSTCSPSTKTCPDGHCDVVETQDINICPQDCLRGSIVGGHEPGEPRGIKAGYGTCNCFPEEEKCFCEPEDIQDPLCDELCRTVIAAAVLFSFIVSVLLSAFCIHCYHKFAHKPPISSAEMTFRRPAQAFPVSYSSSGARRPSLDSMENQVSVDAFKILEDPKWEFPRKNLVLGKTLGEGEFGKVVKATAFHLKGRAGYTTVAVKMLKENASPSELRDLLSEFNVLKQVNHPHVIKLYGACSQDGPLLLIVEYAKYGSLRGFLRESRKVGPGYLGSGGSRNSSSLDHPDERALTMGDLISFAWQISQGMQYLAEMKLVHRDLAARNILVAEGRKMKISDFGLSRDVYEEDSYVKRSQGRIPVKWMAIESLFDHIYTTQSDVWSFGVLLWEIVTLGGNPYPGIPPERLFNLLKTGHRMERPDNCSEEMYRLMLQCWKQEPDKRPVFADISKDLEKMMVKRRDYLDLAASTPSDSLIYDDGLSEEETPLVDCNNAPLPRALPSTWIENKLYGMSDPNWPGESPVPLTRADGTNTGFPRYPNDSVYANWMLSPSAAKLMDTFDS
T1 sequence (P07949 29-1114): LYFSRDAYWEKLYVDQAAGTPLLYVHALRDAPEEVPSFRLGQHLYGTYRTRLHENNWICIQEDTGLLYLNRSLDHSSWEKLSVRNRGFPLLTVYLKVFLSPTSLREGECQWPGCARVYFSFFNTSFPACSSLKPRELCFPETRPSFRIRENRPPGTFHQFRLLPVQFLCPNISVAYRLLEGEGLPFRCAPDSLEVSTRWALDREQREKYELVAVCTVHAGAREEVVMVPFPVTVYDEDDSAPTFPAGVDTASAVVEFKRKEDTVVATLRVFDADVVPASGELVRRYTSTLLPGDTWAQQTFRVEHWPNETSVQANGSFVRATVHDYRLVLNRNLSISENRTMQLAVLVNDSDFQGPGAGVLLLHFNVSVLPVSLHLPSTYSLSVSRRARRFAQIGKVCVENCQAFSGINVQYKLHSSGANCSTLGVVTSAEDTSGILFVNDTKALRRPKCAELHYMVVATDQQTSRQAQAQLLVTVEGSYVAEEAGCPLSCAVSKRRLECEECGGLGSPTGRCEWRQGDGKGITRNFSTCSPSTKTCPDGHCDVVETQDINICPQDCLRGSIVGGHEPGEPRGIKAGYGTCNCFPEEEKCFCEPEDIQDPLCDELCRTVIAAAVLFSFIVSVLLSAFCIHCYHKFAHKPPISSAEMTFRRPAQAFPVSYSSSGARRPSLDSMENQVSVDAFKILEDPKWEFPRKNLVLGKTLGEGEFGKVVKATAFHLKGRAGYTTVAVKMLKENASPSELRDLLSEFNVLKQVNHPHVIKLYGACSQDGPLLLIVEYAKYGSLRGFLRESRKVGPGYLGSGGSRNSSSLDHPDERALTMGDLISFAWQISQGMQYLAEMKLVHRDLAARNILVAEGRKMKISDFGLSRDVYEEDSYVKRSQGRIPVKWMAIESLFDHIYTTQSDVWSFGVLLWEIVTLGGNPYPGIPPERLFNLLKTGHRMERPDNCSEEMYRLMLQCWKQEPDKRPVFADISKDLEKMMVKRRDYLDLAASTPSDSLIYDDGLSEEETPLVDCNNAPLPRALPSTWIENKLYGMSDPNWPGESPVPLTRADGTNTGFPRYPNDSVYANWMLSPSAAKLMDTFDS
T4 sequence (P07949 29-1114 M918T): as the sequence (P07949 29-1114) above, with M890T counted along it

Row | SMILES | IC50 (RET) [nM] | IC50 (KDR kinase) [nM] | Ratio (KDR/RET) (KDR kinase) | IC50 [1] [nM] | GI50 (Ba/F3 KIF5B-RET cells) [nM] | IC50 (RET M918T) [nM] | MRT ([2]; read-out: Average residence time MRT) [h] | Cmax ([2]; read-out: Blood concentration Cmax) [ng/mL] | AUC(0-t) ([2]; read-out: Curve area AUC0-t) [ng·h/mL] | AUC(0-inf) ([2]; read-out: Curve area AUC0-∞) [ng·h/mL] | half-life ([2]; read-out: Half-life t1/2 (converted)) [h] | Tmax ([2]; read-out: Peak time tmax) [h]
1 | CC1(NC(=O)c2ncccc2Cl)CCN(c2ccc(-c3cc(C#CC4(O)COC4)cn4ncc(C#N)c34)cn2)CC1 [Embodiment 175, 3-Chloro-N-(1-(5-(3-cyano-6-((3-hydroxyoxetan-3-yl)ethynyl)pyrazolo[1,5-a]pyridin-4-yl)pyridin-2-yl)-4-methylpiperidin-4-yl)picolinamide] | 0.25 | 47 | 185 | 18.5 | 15.5 | – | – | – | – | – | – | –
2 | COc1ccc(CN2C3CC2CN(c2ccc(-c4cc(OCC5(C#N)CC5)cn5ncc(C#N)c45)cn2)C3)cn1 [Embodiment 106, 6-((1-Cyanocyclopropyl)methoxy)-4-(6-(6-((6-methoxypyridin-3-yl)methyl)-3,6-diazabicyclo[3.1.1]heptan-3-yl)pyridin-3-yl)pyrazolo[1,5-a]pyridine-3-carbonitrile] | – | – | – | 19 | – | 0.47 | 4.71 | 3120 | 18900 | 18900 | 2.66 | 0.5
3 | COc1ncc(CN2C3CC2CN(c2ccc(-c4cc(OC[C@H]5C[C@@](C)(O)C5)cn5ncc(C#N)c45)cn2)C3)cc1F [Embodiment 161, 4-(6-(6-((5-Fluoro-6-methoxypyridin-3-yl)methyl)-3,6-diazabicyclo[3.1.1]heptan-3-yl)pyridin-3-yl)-6-((cis-3-hydroxy-3-methylcyclobutyl)methoxy)pyrazolo[1,5-a]pyridine-3-carbonitrile] | 0.37 | 7.4 | 20 | 13.9 | 8.59 | – | – | – | – | – | – | –
